Source: patent publication US4804751A, “Polycyclic hydrocarbon succinimides with psychotropic activity” (American Home Products Corporation, priority 1987, dated 1989)
Structures can show the parent of a compound that is named as a salt. Where two headings read alike, the source gives them in different places.

Experiments:
[1] = molecular target: limbic D-2 dopamine receptor (Rattus norvegicus, UniProt P61169); test: biochemical; conditions: read-out: Limbic D-2 Binding, inhibition
[2] = system: conditioned avoidance responding in rats; test: conditioned avoidance (shelf-jump response) test; conditions: i.p.; Table 1
Method: A test designed to determine the potential antipsychotic activity of the compounds of the invention is the conditioned avoidance (shelf-jump response) test.
This test is carried out as follows:
Male CD rats (Charles River) maintained at approximately 400-450 gm body weight are used. […] A moveable wall, controlled by a motor, determines whether the rat has access to the shelf at any time during the experiment. The experimental chamber also contains a house light and sonalert. A steel grid floor in the main chamber is wired for presentation of electric shock. Each trial consists of a fifteen-second warning tone (conditioned stimulus), continuing for an additional fifteen seconds accompanied by electric shock (unconditioned stimulus). A response (jumping onto the exposed shelf of the upper chamber) occurring during the initial fifteen-second warning tone is considered an avoidance response, while a response occurring during shock delivery is considered an escape response. Trials are presented on a fixed interval schedule of one minute. The session consists of thirty-six trials. Animals are run twice weekly with control sessions always preceding a drug run, and with at least one day intervening. Compounds are administered i.p. or p.o. at appropriate pre-treatment times to a minimum of five rats at each dose level over a range of doses.
The following experimental parameters are recorded by computer: (1) the number of avoidance responses, (2) the number of escape responses, and (3) the number of trials in which no response occurred.
Response counts are summed over all subjects at a given dose. […] This number is expressed as a percentage of the total trials. Control performance is arbitrarily assigned a value of 100% for avoidance and the dose calculated to produce a 50% block in avoidance responding (AB50) is obtained from a dose-effect regression line fitted by the method of least squares. Potential anti-psychotic compounds suppress avoidance responding and increase escape responding.

[3] = molecular target: T1, 5-HT-1A serotonin receptor (Rattus norvegicus, UniProt P19327); test: ex vivo inhibition of 5-HT-1A serotonin receptor binding (3H-8-OH-DPAT, hippocampal membranes)
T1 construct: Hippocampal tissue is dissected and homogenized on ice in 40 vols of buffer; from tissue; host or cells: rat hippocampus, washed membrane homogenate
T1 sequence (P19327 1-422): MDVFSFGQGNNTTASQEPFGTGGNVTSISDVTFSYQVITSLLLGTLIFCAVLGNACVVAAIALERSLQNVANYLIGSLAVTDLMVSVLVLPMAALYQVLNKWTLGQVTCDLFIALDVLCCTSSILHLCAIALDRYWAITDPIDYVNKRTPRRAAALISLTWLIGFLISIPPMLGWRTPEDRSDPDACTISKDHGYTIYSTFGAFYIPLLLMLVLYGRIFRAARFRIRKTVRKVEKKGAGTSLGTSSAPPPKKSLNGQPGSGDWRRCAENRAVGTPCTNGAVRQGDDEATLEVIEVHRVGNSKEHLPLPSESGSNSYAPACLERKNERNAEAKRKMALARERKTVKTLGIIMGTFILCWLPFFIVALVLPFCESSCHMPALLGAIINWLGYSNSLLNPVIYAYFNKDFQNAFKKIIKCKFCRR
Method: The assay is carried out as follows:
Several groups of rats (4-6 rats/group) are injected with test compound or the appropriate vehicle. Thirty minutes later, unless otherwise noted, rats are decapitated and their brains removed. Various brain regions are dissected and rapidly frozen and maintained at -70° C. until used.
The homogenate is then centrifuged at 20,000 rpm (RC5-B; 50,000 g) and the supernatant discarded. […] The pellet is then resuspended in 100 vols of buffer B (50 mM Tris HCl, pH=7.7 containing 0.1% ascorbate, 10 μM pargyline and 4 mM CaCl2) and sonicated. An aliquot is taken for protein determination by the Lowry method and the remainder stored frozen at -70° C. until used.
Specific binding obtained in vehicle-treated rats is compared to that obtained in animals receiving a single or various doses of test compound and expressed as percent of control.

[4] = Table 3, rat hippocampal tissue, 3H-8-OH-DPAT, read-out: Inhibition Constant (Ki)

Sequence of limbic D-2 dopamine receptor (P61169 whole entry): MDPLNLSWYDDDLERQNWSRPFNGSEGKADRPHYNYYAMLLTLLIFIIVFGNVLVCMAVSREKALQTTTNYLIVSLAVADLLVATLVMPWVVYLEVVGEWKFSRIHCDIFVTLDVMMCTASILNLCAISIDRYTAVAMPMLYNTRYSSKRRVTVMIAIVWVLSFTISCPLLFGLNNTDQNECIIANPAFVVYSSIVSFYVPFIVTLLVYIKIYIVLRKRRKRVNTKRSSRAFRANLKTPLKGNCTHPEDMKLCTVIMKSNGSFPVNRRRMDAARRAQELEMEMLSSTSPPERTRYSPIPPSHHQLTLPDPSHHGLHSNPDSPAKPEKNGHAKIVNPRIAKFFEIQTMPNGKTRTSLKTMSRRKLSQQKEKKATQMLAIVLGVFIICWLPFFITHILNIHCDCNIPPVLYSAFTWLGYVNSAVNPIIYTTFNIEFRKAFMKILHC

| Ki [3, 4] [nM] | Compound | inhibition at 1 µM [1] [%] | Active at [2] [mg/kg] | Ki [3] [nM] |
| --- | --- | --- | --- | --- |
| 14 | O=C1N(CCCCN2CCN(c3ncccn3)CC2)C(=O)C23C4C=CC(C4)C12C1C=CC3C1 (centres unmarked) [Example 1, 1,4,5,8-Tetrahydro-10-[4-[4-(2-pyrimidinyl-1-piperazinyl]butyl]-4a,8a-(methaniminomethano)-1,4:5,8-dimethanonaphthalene-9,11-dione, dihydrochloride, hemihydrate] | 53 | 40 |  |
|  | O=C1N(CCCCN2CCN(c3cnccn3)CC2)C(=O)C23C4C=CC(C4)C12C1C=CC3C1 (centres unmarked) [Example 3, 1,4,5,8-Tetrahydro-10-[4-[4-(2-pyrazinyl)-1-piperazinyl]butyl]-4a,8a-(methaniminomethano)-1,4:5,8-dimethanonaphthalene-9,11-dione, dihydrochloride, sesquihydrate] | 63 | 40 | 12 |
| 7 | O=C1N(CCCCN2CCN(c3ncccn3)CC2)C(=O)C23C4CCC(C4)C12C1CCC3C1 (centres unmarked) [Example 4, Octahydro-10-[4-[4-(2-pyrimdinyl)-1-piperazinyl]butyl]-4a,8a-(methaniminomethano)-1,4:5,8-dimethanonaphthalene-9,11-dione, dihydrochloride] |  | 40 |  |
